In patent publication US12037329B2, “SphK inhibitors and methods of making and using same” (Washington University, priority 2021, dated 2024):
Entries after “also recorded” stand apart in the source; their conditions may differ.

Columns and labels:
U-251 MG cells = test: CellTiter96 MTS cell viability dose response, U-251 MG; type: cell-based, human; settings: Homo sapiens; U-251 MG cells, 72 h, MTS; read-out: IC50 (cell viability)
Protocol: The anti-tumor activity of these inhibitors was further examined at different doses.
(§1) Cell viability was determined using CellTiter96 MTS Assay and compared to DMSO treated control cells. IC50 values were calculated by non-linear regression analysis of the dose-response curve using GraphPad Prism version 8.00 for Windows (GraphPad Software).

BT20 cells = test: CellTiter96 MTS cell viability dose response, BT20; type: cell-based; settings: Homo sapiens, BT-20
Protocol: (§2) The anti-tumor activity of these inhibitors was also examined in different cell types. U-251 MG cells, SiHa cells, BT20 cells, and MDA-MB-453 cells were treated with increasing dose (10^−10 M to 10^−4 M) of SphK2 inhibitor TZ72-53 (21b), and dose response curves were generated (FIG. 9). IC50 values of 21b in the four different cell lines were calculated by non-linear regression analysis of the dose-response curve and are shown in Table 5 below.
as §1

MDA-MB-453 cells = test: CellTiter96 MTS cell viability dose response, MDA-MB-453; type: cell-based; settings: Homo sapiens, MD-MB-453 (MDA-MB-453) cells
Protocol: as §2, §1

[1] = test system: U-251 MG human glioblastoma cells; test: U-251 MG cell viability, Hoechst 33258/propidium iodide imaging, 125 μM, 24 h; type: cell-based; settings: hydrochloride
Protocol: Cells were seeded into a 96-well microplate (Corning, Corning, NY) at 3000 cells/well and incubated for approximately 16 h. […] Cells were imaged using MetaXpress High-Content Image Acquisition and Analysis Software 6.1 and ImageXpress Micro XLS Wide-field High-Content Analysis System (Molecular Devices, San Jose, CA). Images were taken with a Nikon 10 CFI Plan Fluor objective. For all samples, triplicated measurements were performed.

SphK2 [2] = target: T1, SphK2 (Homo sapiens (Human), UniProt Q9NRA0); test: ADP-Glo kinase assay, SphK2; type: biochemical
Text: The bioluminescence-based kinase assay such as ADP-Glo assay measures ADP formed from a kinase reaction with a luciferase. Upon the completion of a kinase reaction, the remaining ATP is depleted, the ADP produced in the kinase reaction is then converted to ATP and the detection is based on a sensitive and robust bioluminescence reaction. It has a broad linear range of ATP concentrations and high dynamic range. To determine the inhibition activity of the compounds, the ADP-Glo kinase assay was used which was able to detect down to 20% of 1 μM ATP to ADP conversion (FIG. 4A).
ADP-Glo (Promega, Madison, WI) kinase assay were used to evaluate the kinase activity of SphK. ATP to ADP standard curves were prepared in the kinase buffer to assess the linearity of the assay in order to calculate the amount of ADP produced in each tested conditions (FIG. 4A). SB10 (tenfold signal to background ra-tio) of SphK was also determined to evaluate the enzyme perfor-mance and to optimize the kinase reaction condition in this system. In brief, for SphK2, […], 100 μM of D-erythro-Sphingosine (Tocris Bioscience, Minneapolis, MN), and 2 ng of recombinant human SphK2 (R&D Systems, Minneapolis, MN) with desired concentration of each synthesized compound were used for SphK2 kinase reaction. For SphK1, exact same reaction condition was used except 0.5 ng of recombinant human SphK1 was used.
To evaluate the SphK selectivity of each compound, 125 μM of each compound in reaction buffer ([…] Tris, pH 8.0, […] MgCl2, and 0.1 mg/mL BSA) with 5% DMSO was incubated with either SphK1 or SphK2 in a 384-well solid white low volume microplate (Corning, Corning, NY), and the reaction was initiated by adding mixture of ATP and D-erythro-Sphingosine to a total volume of 5 μL, after 1 h incubation at room temperature with gentle shaking, the reaction was stopped by adding equal volume of ADP-Glo buffer and incubated for another hour to remove excess amount of ATP from the reaction. Afterwards, 10 μL of kinase detection reagent was added, mixed, and incubated for 30 min under dark. Luminescence output was recorded using a SpectraMax M5 Multi-Mode Microplate Readers (Molecular Devices, San Jose, CA), an integration time of 500 ms was used. All reactions were performed in triplicate. The enzyme activity of SphK in the presence of each compound was normalized to the no treatment control. […] The final data was calculated using Prism 7.0 (GraphPad Software, La Jolla, CA), IC50 was determined using Nonlinear regression (curve fit) four parameters dose-response calculations.

SiHa cells = test: CellTiter96 MTS cell viability dose response, SiHa; type: cell-based; settings: Homo sapiens
Protocol: as §2, §1

SphK2 [3] = target: T1, SphK2; settings: human SphK2; cited from earlier work
SphK1 = SphK1 (Homo sapiens (Human), UniProt Q9NYA1); settings: cited from earlier work
Sequence of SphK1 (Q9NYA1 whole entry): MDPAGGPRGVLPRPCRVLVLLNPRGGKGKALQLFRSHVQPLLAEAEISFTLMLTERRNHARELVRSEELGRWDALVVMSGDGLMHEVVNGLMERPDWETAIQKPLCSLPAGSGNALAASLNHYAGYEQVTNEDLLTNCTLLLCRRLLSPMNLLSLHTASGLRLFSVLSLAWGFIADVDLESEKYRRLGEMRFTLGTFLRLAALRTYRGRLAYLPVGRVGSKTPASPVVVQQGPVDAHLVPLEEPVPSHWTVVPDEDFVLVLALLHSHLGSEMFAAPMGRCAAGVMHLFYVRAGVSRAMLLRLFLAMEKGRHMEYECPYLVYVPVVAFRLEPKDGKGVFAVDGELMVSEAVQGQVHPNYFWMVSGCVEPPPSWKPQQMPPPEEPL

T1 sequence (Q9NRA0 whole entry): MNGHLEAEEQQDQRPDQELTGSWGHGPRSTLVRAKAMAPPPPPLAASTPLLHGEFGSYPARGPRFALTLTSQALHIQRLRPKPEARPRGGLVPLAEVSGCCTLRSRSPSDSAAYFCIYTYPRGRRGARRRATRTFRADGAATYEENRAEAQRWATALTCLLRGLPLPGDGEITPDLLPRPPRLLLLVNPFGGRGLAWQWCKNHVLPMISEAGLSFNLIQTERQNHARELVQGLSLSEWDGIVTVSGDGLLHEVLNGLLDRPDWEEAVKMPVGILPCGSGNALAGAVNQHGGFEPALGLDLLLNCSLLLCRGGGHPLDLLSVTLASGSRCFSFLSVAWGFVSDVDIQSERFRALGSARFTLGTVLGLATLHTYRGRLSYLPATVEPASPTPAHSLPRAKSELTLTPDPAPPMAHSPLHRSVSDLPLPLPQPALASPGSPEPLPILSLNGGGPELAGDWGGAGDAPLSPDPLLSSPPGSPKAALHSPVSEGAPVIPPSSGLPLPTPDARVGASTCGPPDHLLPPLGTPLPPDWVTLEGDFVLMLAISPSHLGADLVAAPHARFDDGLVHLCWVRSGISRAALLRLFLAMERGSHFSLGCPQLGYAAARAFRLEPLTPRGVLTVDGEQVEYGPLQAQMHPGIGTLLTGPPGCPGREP

| SMILES | IC50 (U-251 MG cells) | IC50 (BT20 cells) | IC50 (MDA-MB-453 cells) | antitumor activity / reduction of U-251 MG cell viability (in words) [1] | SphK2 inhibitory activity (in words) (SphK2 [2]) | selectivity/specificity for SphK2 over SphK1 (SphK2 [2]; 125 μM of each compound, SphK2 versus SphK1, FIG. 5, hydrochloride) | IC50 (SiHa cells) | Ki (SphK2 [3]) | Ki (SphK1) |
| --- | --- | --- | --- | --- | --- | --- | --- | --- | --- |
| Cl.N=C(N)N1CCC[C@H]1Cc1nc(-c2ccc(Cn3cc(-c4ccc(C(F)(F)F)cc4)nn3)cc2)no1 [Compound 21b, (S)-2-((3-(4-((4-(4-(Trifluoromethyl)phenyl)-1H-1,2,3-triazol-1-yl)methyl)phenyl)-1,2,4-oxadiazol-5-yl)methyl)-pyrrolidine-1-carboximidamide hydrochloride] | 11 µM | 21.3 µM | 35.8 µM | high anti-tumor activity; also recorded: significant reduction | no inhibitory activity | lowest specificity; also recorded: no selectivity | 13 µM | – | – |
| Cc1ccc(S(=O)(=O)Nc2ccccc2C=Nc2ccccc2NS(=O)(=O)c2ccc(C)cc2)cc1 [MP-A08] | – | – | – | – | – | – | – | 6.9 ± 0.8 µM | 27 ± 3 µM |
